Data on 7 compounds can be found in patent US11208387B2, “Macrocyclic broad spectrum antibiotics” (Genentech, Inc., priority 2019, dated 2021).

Each structure is given as a SMILES string. In brackets after ≈: the same amount, converted by molar mass. Read-outs that look alike come from different tables or passages of the source.

Common to all, as to assay: Serum MIC, broth micro-dilution
Common to all, as to type: cell-based
For orientation: In broth dilution the organism is exposed to a series of concentrations in liquid medium.

For assay [1], the system named is Pseudomonas aeruginosa PA01. To be noted: for MIC: Pseudomonas aeruginosa, read-out: P. aeruginosa 01 Serum MIC. As to the method:
(§1) In vitro antimicrobial activity of each compound was determined by measuring minimal inhibitor concentrations (MICs) using the broth micro-dilution technique as approved by the Clinical and Laboratory Standards Institute (CLSI) (Methods for Dilution Antimicrobial Susceptibility Tests for Bacteria that Grow Aerobically; Approved Standard—Eighth Edition. CLSI document M07-A8. Wayne, Pa.: Clinical and Laboratory Standards; 2009). Antibacterial activity was measure against Escherichia coli strain ATCC 25922 (E. coli), Klebsiella pneumoniae ATCC 700603 (K. pneumoniae), Acinetobacter baumannii ATCC 17978 (A. baumannii), and Pseudomonas aeruginosa PA01 (P. aeruginosa), each of which is representative of a clinically relevant Gram-negative species. Cells were inoculated onto plates of Mueller Hinton Agar and grown at 37° C. for 16-18 hours. Inocula suspensions were prepared by scraping cells into 1 mL of testing media (Mueller Hinton II cation adjusted Broth) and diluting to a final OD 600 nm of 0.01.
(§2) Test compounds were prepared in DMSO at a concentration of […]. The compounds were tested under several different dilution formats. In protocol 1, the compound stocks were diluted into testing media at a concentration of 64 μg/ml and serial 2-fold dilutions were made in the same media, in 96-well U bottom microtiter dishes, for a total of 10 compound concentrations. In protocol 2, the compound stocks were diluted into testing media at a concentration of 4 μg/mL and serial 2-fold dilutions were made in the same media, in 96-well U bottom microtiter dishes, for a total of 10 compound concentrations. In protocol 3, compound stocks were diluted into testing media at a concentration of 0.5 μg/mL, with serial 2-fold dilutions conducted as described above. In protocol 4, compound stocks were diluted into testing media at a concentration of 0.13 μg/mL, with serial 2-fold dilutions conducted as described above. Inocula suspensions were added to the 2-fold serial dilutions of test compounds to a final density of OD 600 nm of 0.0005 and incubated at 35° C. for 22 hours. […] To assess antimicrobial activity in the presence of plasma proteins, MICs were also determined in growth media supplemented with 50% serum. Bacterial inocula and test compound dilution plates were prepared using the same protocol as described above for the standard MICs assay, with the exception that a mixture of 50% v/v Mueller Hinton II cation adjusted Broth and 50% v/v mouse sterile filtered serum (Equitech-Bio) was used in place of 100% Mueller Hinton II cation adjusted Broth. The results are listed in Table 3 (MIC, IC50 values micromolar).

Assay [2] has as its system Klebsiella pneumoniae ATCC 700603. The protocol:
as §1, §2

Assay [3] relates to Escherichia coli strain ATCC 25922. To be noted: read-out: E. coli 25922 Serum MIC. As to the method:
as §1, §2

Assay [4] deals with Acinetobacter baumannii ATCC 17978. As to the method: as §1, §2
The mark [5] stands for this setting: PA01, 50% v/v mouse serum in Mueller Hinton II cation adjusted Broth, 35° C., 22 hours, Table 4.
Setting [6] is: Klebsiella pneumoniae, ATCC700603, 50% v/v mouse serum in Mueller Hinton II cation adjusted Broth, 35° C., 22 hours, Table 4, read-out: K pneumoniae 700603 Serum MIC.
The mark [7] stands for this setting: Escherichia coli, ATCC25922, 50% v/v mouse serum in Mueller Hinton II cation adjusted Broth, 35° C., 22 hours, Table 4.
Setting [8] is: Acinetobacter baumannii, ATCC17978, 50% v/v mouse serum in Mueller Hinton II cation adjusted Broth, 35° C., 22 hours, Table 4, read-out: A. baumanii 17978 Serum MIC.
Where [9] appears, read: Acinetobacter baumannii, ATCC17978, 50% v/v mouse serum in Mueller Hinton II cation adjusted Broth, 35° C., 22 hours, Table 5, read-out: Acinetobacter baumanii 17978 Serum MIC.
Setting [10] is: 50% v/v mouse serum in Mueller Hinton II cation adjusted Broth, 35° C., 22 hours, Table 4.

The MIC is the least concentration at which growth counts as inhibited. Take `CCC(C)(C)c1ccc(-c2nc(C)c(C(=O)N[C@@H](CNS(N)(=O)=O)C(=O)N(C)[C@@H]3C(=O)N[C@@H](C)C(=O)N[C@H](C(=O)O)Cc4ccc(OC[C@H](O)CN)c(c4)-c4cc3cc(OC[C@H](O)CN)c4O)c(N)n2)c(F)c1` [Example 33, (8S,11S,14S)-14-[[(2S)-2-[[4-amino-2-[4-(1,1-dimethyl-propyl)-2-fluoro-phenyl]-6-methyl-pyrimidine-5-carbonyl]amino]-3-(sulfamoylamino)-propanoyl]-methyl-amino]-3,17-bis[(2R)-3-amino-2-hydroxy-propoxy]-18-hydroxy-11-methyl-10,13-dioxo-9,12-diazatricyclo-[13.3.1.12,6]icosa-1(18),2(20),3,5,15(19), 16-hexaene-8-carboxylic acid]: the MIC is 8 µM (≈ 8.32 µg/mL) in assay [1] (setting [5]); 1 µM (≈ 1.04 µg/mL) in assay [2] (setting [6]); 1 µM (≈ 1.04 µg/mL) in assay [3] (setting [7]); 48 µM (≈ 49.9 µg/mL) in assay [4] (setting [8]); 48 µM (≈ 49.9 µg/mL) in assay [4] (setting [9]).

For `Cc1nc(-c2ccc(OCCC(C)(C)C)cc2)nc(N)c1C(=O)N[C@@H](CNS(N)(=O)=O)C(=O)N(C)[C@@H]1C(=O)N[C@@H](C)C(=O)N[C@H](C(=O)O)Cc2ccc(OC[C@H](O)CN)c(c2)-c2cc1cc(OC[C@H](O)CN)c2O` [Example 3, (8S,11S,14S)-18-hydroxy-11-methyl-14-[methyl-[(2S)-2-[[4-amino-2-[4-(3,3-dimethylbutoxy)-phenyl]-6-methyl-pyrimidine-5-carbonyl]amino]-3-(sulfamoylamino)-propanoyl]amino]-10,13-dioxo-3,17-bis[(2R)-3-amino-2-hydroxy-propoxy]-9,12-diazatricyclo-[13.3.1.12,6]icosa-1(18),2(20),3,5,15(19), 16-hexaene-8-carboxylic acid], the MIC in assay [1] (setting [5]) was 4 µM (≈ 4.21 µg/mL); in assay [2] (setting [6]), 0.5 µM (≈ 0.526 µg/mL); in assay [3] (setting [7]) it was 0.5 µM (≈ 0.526 µg/mL); in assay [4] (setting [8]) it was 12 µM (≈ 12.6 µg/mL); in assay [4] (setting [9]), 12 µM (≈ 12.6 µg/mL).

`Cc1nc(-c2ccc(C(C)(C)C)cc2)nc(C)c1C(=O)N[C@@H](CCN)C(=O)N(C)[C@@H]1C(=O)N[C@@H](C)C(=O)N[C@H](C(=O)O)Cc2cc(OCCN)c(O)c(c2)-c2cc1ccc2O` (racemic) [Example 561-15]: the MIC in assay [1] (PA01, 50% v/v mouse serum, compounds of Table 1, Table 7) was found to be 64 µM (≈ 53.7 µg/mL); in assay [2] (Klebsiella pneumoniae, ATCC700603, 50% v/v mouse serum, compounds of Table 1, Table 7, read-out: K. pneumoniae 700603 Serum MIC) it was 4 µM (≈ 3.36 µg/mL); in assay [3] (Escherichia coli, ATCC25922, 50% v/v mouse serum, compounds of Table 1, Table 7), 2 µM (≈ 1.68 µg/mL); in assay [4] (Acinetobacter baumannii, ATCC17978, 50% v/v mouse serum, compounds of Table 1, Table 7, read-out: A. baumanii 17978 Serum MIC), 64 µM (≈ 53.7 µg/mL).

As for `Cc1nc(-c2ccc(OC(C)C)cc2)nc(C)c1C(=O)N[C@@H](CNS(N)(=O)=O)C(=O)N(C)[C@@H]1C(=O)N[C@@H](C)C(=O)N[C@H](C(=O)O)Cc2ccc(OC[C@H](O)CN)c(c2)-c2cc1cc(OC[C@H](O)CN)c2O` [Example 13, (8S,11S,14S)-18-hydroxy-11-methyl-14-[methyl-[(2S)-2-[[2-(4-isopropoxy-phenyl)-4,6-dimethyl-pyrimidine-5-carbonyl]amino]-3-(sulfamoylamino)-propanoyl]amino]-10,13-dioxo-3,17-bis[(2R)-3-amino-2-hydroxy-propoxy]-9,12-diazatricyclo-[13.3.1.12,6]icosa-1(18),2(20),3,5,15(19), 16-hexaene-8-carboxylic acid], the MIC in assay [1] (PA01, 22 h) is 24 µM (≈ 24.2 µg/mL); in assay [2] (Klebsiella pneumoniae, ATCC700603, 22 h, read-out: K pneumoniae 700603 Serum MIC) it was 1.5 µM (≈ 1.51 µg/mL); in assay [3] (Escherichia coli, ATCC25922, 22 h), 1.5 µM (≈ 1.51 µg/mL); in assay [4] (Acinetobacter baumannii, ATCC17978, 22 h, read-out: A. baumanii 17978 Serum MIC) it was 32 µM (≈ 32.3 µg/mL); in assay [4] (Acinetobacter baumannii, ATCC17978, 22 h, read-out: Acinetobacter baumanii 17978 Serum MIC) it was 32 µM (≈ 32.3 µg/mL).

For `Cc1nc(-c2ccc(C(C)(C)C)c(F)c2)nc(N)c1C(=O)N[C@@H](CNS(N)(=O)=O)C(=O)N(C)[C@@H]1C(=O)N[C@@H](C)C(=O)N[C@H](C(=O)O)Cc2ccc(OC[C@H](O)CN)c(c2)-c2cc1cc(OC[C@H](O)CN)c2O` [Example 60, (8S,11S,14S)-14-[[(2S)-2-[[4-amino-2-(4-tert-butyl-3-fluoro-phenyl)-6-methyl-pyrimidine-5-carbonyl]amino]-3-(sulfamoylamino)-propanoyl]-methyl-amino]-3,17-bis[(2R)-3-amino-2-hydroxy-propoxy]-18-hydroxy-11-methyl-10,13-dioxo-9,12-diazatricyclo-[13.3.1.12,6]icosa-1(18),2(20),3,5,15(19), 16-hexaene-8-carboxylic acid], the MIC came out at 4 µM (≈ 4.1 µg/mL) in assay [1] (setting [5]); 0.75 µM (≈ 0.77 µg/mL) in assay [2] (setting [6]); 0.5 µM (≈ 0.513 µg/mL) in assay [3] (setting [7]); 12 µM (≈ 12.3 µg/mL) in assay [4] (setting [8]); 12 µM (≈ 12.3 µg/mL) in assay [4] (setting [9]).

Turning to `COc1c(OC[C@H](O)CN)cc2cc1-c1cc(ccc1OC[C@H](O)CN)C[C@@H](C(=O)O)NC(=O)[C@H](C)NC(=O)[C@H]2N(C)C(=O)[C@H](CNS(N)(=O)=O)NC(=O)c1c(C)nc(-c2ccc(C(C)(C)C)cc2)nc1N` [Example 75, (8S,11S,14S)-14-[[(2S)-2-[[4-amino-2-(4-tert-butylphenyl)-6-methyl-pyrimidine-5-carbonyl]amino]-3-(sulfamoylamino)-propanoyl]-methyl-amino]-3,17-bis[(2R)-3-amino-2-hydroxy-propoxy]-18-methoxy-11-methyl-10,13-dioxo-9,12-diazatri-cyclo[13.3.1.12,6]icosa-1(18),2(20),3,5,15(19), 16-hexaene-8-carboxylic acid], the “P. aeruginosa 01 Serum MIC” value in assay [1] (setting [10]) was 8 µM. Moreover, the minimal inhibitory concentration (MIC) was 0.5 µM (≈ 0.511 µg/mL) in assay [2] (50% v/v mouse serum in Mueller Hinton II cation adjusted Broth, 35° C., 22 hours, Table 4, read-out: K. pneumoniae 700603 Serum MIC); 0.75 µM (≈ 0.767 µg/mL) in assay [3] (setting [10]); 16 µM (≈ 16.4 µg/mL) in assay [4] (50% v/v mouse serum in Mueller Hinton II cation adjusted Broth, 35° C., 22 hours, Table 4, read-out: A. baumanii 17978 Serum MIC); 16 µM (≈ 16.4 µg/mL) in assay [4] (50% v/v mouse serum in Mueller Hinton II cation adjusted Broth, 35° C., 22 hours, Table 5, read-out: Acinetobacter baumanii 17978 Serum MIC).

As to `Cc1nc(-c2ccc(CC3CC3)cc2)nc(N)c1C(=O)N[C@@H](CNS(N)(=O)=O)C(=O)N(C)[C@@H]1C(=O)N[C@@H](C)C(=O)N[C@H](C(=O)O)Cc2ccc(OC[C@H](O)CN)c(c2)-c2cc1cc(OC[C@H](O)CN)c2O` [Example 34, (8S,11S,14S)-14-[[(2S)-2-[[4-amino-2-[4-(cyclopropyl-methyl)phenyl]-6-methyl-pyrimidine-5-carbonyl]amino]-3-(sulfamoylamino)-propanoyl]-methyl-amino]-3,17-bis[(2R)-3-amino-2-hydroxy-propoxy]-18-hydroxy-11-methyl-10,13-dioxo-9,12-diazatricyclo-[13.3.1.12,6]icosa-1(18),2(20),3,5,15(19), 16-hexaene-8-carboxylic acid], the minimum inhibitory concentration (MIC) was determined as 12 µM (≈ 12.1 µg/mL) in assay [1] (setting [5]); 0.75 µM (≈ 0.755 µg/mL) in assay [2] (setting [6]); 0.5 µM (≈ 0.503 µg/mL) in assay [3] (setting [7]); 16 µM (≈ 16.1 µg/mL) in assay [4] (setting [8]); 16 µM (≈ 16.1 µg/mL) in assay [4] (setting [9]).
